pEC50, pIC50: −log10 of the molar value. Some results are limits rather than exact numbers.

Common to all, as to format: functional
The target in assay [1] is Beta-2 adrenergic receptor (Rattus norvegicus, UniProt P10608). The assay can be described thus: Agonistic activity towards beta-2 adrenoceptor. Mean concentration required to produce 50% inhibition of uterine contraction.
The target in assay [2] is Beta-1 adrenergic receptor (Rattus norvegicus) (UniProt P18090). Nature of the assay: Increase in BPM in isolated rat atria.
Chain of Beta-1 adrenergic receptor (Rattus norvegicus) (P18090 whole entry, looked up): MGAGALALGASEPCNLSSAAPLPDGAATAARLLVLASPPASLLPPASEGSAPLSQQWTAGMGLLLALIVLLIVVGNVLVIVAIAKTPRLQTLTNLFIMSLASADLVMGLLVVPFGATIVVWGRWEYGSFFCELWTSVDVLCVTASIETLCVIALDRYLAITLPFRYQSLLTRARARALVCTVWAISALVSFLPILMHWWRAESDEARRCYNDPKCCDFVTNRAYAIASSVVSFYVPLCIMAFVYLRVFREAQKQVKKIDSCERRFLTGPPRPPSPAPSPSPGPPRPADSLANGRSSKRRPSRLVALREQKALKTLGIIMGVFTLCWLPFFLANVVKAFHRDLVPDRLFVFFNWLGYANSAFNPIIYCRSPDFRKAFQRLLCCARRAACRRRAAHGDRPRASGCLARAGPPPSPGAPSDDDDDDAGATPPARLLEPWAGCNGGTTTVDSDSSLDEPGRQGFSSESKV
Assay [3] is described as follows: Concentration ratio of beta-1 (EC50) to beta3 (EC50).
The nature of assay [4]: Concentration ratio of beta-2 (EC50) to beta3 (EC50).
For a further assay, the species on record is Mustela putorius furo. The assay can be described thus: In vitro concentration required to produce 50% relaxation of ferret detrusor.
Assay [5] concerns Rattus norvegicus. Nature of the assay: In vivo dose required to lower the intrabladder pressure of the anesthetized rat by 50% over that before compound administration.
Assay [6] is filed under the species Rattus norvegicus. Nature of the assay: In vitro concentration required to produce 50% relaxation of rat detrusor.
Assay [7] can be described thus: Concentration ratio of beta2 (EC50) to […].
Assay [8] in a line: Concentration ratio of beta-1 (EC50) to beta-3 (EC50).

Chain of Beta-2 adrenergic receptor (P10608 whole entry): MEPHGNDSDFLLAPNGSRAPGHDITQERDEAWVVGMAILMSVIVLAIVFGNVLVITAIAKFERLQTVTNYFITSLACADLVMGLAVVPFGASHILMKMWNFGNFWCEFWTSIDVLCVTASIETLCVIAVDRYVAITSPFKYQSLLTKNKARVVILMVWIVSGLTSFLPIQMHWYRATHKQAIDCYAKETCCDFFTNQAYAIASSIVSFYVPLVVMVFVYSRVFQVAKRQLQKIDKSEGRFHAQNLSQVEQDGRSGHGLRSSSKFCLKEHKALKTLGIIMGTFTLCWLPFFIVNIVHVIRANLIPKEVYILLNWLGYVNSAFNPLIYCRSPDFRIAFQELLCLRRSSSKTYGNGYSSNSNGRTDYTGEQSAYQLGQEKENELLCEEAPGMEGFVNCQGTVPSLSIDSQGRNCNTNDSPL

What is called pIC50 is the negative decadic logarithm of the IC50, by convention in mol/L. Higher therefore signals a small IC50. For `C[C@H](NCCc1ccc(NC(C)(C)C(=O)O)cc1)[C@H](O)c1ccc(O)cc1`, the pIC50 in assay [1] is 4.96. For the same compound, the -Log EC20 in assay [2] came out at 4.96.

The compound `C[C@H](NCCc1ccc(NCC(=O)O)c(I)c1)[C@H](O)c1ccc(O)cc1` had a negative-log IC50 (pIC50) in assay [1] of 5.66. Also, the results for the Selectivity in assay [3] and in [4] were 6.6 and 2.7, respectively. The -Log EC20 in assay [2] came out at 5.27.

In turn, `C[C@H](NCCc1cc(Br)c(NCC(=O)O)c(Br)c1)[C@H](O)c1ccc(O)cc1` had a pIC50 in assay [1] of 5.59. In addition, the Selectivity was 235 in assay [3] and 32 in assay [4]. Moreover, the -Log EC20 in assay [2] worked out at 4.72.

What is called pEC50 is the negative decadic logarithm of the EC50, by convention in mol/L. Higher therefore signals a small EC50. By ED50 is commonly meant the midpoint of the dose-response relation. Read a high ED50 as weaker potency. In turn, `C[C@H](NCCc1cc(Cl)c(NCC(=O)O)c(Cl)c1)[C@H](O)c1ccc(O)cc1` had a pIC50 in assay [1] of 4.85. For the same compound, the Selectivity stood at 2070 in assay [3] and 1000 in [4]. This compound registered a -Log EC20 in assay [2] of 4.54. Further, the negative logarithm of the EC50 (pEC50) was 7.85 in the assay listed under Mustela putorius furo and 6.72 in the assay listed under Rattus norvegicus [6]. This compound also returned an ED50 with Rattus norvegicus [5] of 0.048 mg/kg.

As to `C[C@H](NCCc1ccc(N(C)CC(=O)O)c(Cl)c1)[C@H](O)c1ccc(O)cc1`, the “-Log IC50” value in [1] was more than 4. The results for the Selectivity in assay [3] and in [4] were 2270 and more than 9090, respectively. In [2], this compound showed a -Log EC20 of 4.6.

For the compound `C[C@H](NCCc1ccc(N(C)CC(=O)O)cc1)[C@H](O)c1ccc(O)cc1`, the pIC50 in [1] was 5.80. For the same compound, the Selectivity in [3] is 65; in [4] it was 31. Also, in assay [2], the -Log EC20 amounted to 5.47.

In assay [1], `C[C@H](NCCc1ccc(NCC(=O)O)cc1Cl)[C@H](O)c1ccc(O)cc1` gave a pIC50 of 7.21. For the same compound, the Selectivity is 15 in [3] and 8.6 in assay [4]. In [2], this compound came in with a -Log EC20 of 6.96.

Consider `C[C@H](NCCc1ccc(NCC(=O)O)cc1)[C@H](O)c1ccc(O)cc1`, for which the pIC50 in [1] is 6.19. Moreover, the Selectivity in assay [3] stood at 54; in [4], 27. In addition, the -Log EC20 in [2] worked out at 5.89.

For `C[C@H](NCCc1ccc(NCC(=O)O)c(Br)c1)[C@H](O)c1ccc(O)cc1`, the pIC50 in [1] is 5.85. The Selectivity in assay [3] was found to be 14; in [4], 2.5. This compound gave a -Log EC20 in assay [2] of 5.1.

Regarding `C[C@H](NCCc1cc(Cl)c(N(C)CC(=O)O)c(Cl)c1)[C@H](O)c1ccc(O)cc1`, the “-Log IC50” value in [1] is listed as more than 4. Further, the Selectivity in assay [3] and in [4] was more than 625 in each case. Further, the -Log EC20 in assay [2] is more than 4.

`C[C@H](NCCc1ccc(N(CC(=O)O)CC(=O)O)cc1)[C@H](O)c1ccc(O)cc1` had a pIC50 in [1] of 6.55. The -Log EC20 in [2] was found to be 4.57.

As to `C[C@H](Cc1ccc2c(c1)OC(C(=O)O)(C(=O)O)O2)NC[C@H](O)c1cccc(Cl)c1`, in assay [2], the -Log EC20 was determined as 4.77.

`C[C@H](NCCc1cc(Cl)c(NCC(=O)O)cc1Cl)[C@H](O)c1ccc(O)cc1` showed a negative-log IC50 (pIC50) in assay [1] of 5.89. Also, the Selectivity in assay [3] and in [4] was 21 in each case. In assay [2], this compound displayed a -Log EC20 of 5.89.

In [1], `C[C@H](Cc1ccc(OCC(=O)O)cc1)NC[C@H](O)c1cccc(Cl)c1` gave a pIC50 of 8.04.

In [1], `C[C@H](NCCc1ccc(NCC(=O)O)c(Cl)c1)[C@H](O)c1ccc(O)cc1` showed a pIC50 of 5.48. In addition, the Selectivity was found to be 2900 in assay [3] and 3550 in assay [7]. The same compound yielded a -Log EC20 in [2] of 5.57.

`C[C@H](NCCc1ccc(NCC(=O)O)c(Cl)c1Cl)[C@H](O)c1ccc(O)cc1` had a negative logarithm of the IC50 (pIC50) in assay [1] of 5.77. For the same compound, the Selectivity turned out to be 0.33 in [3] and 3.7 in assay [4]. Also, in [2], the -Log EC20 was found to be 6.82.

Take `C[C@H](NCCc1ccc(N(CC(=O)O)Cc2ccccc2)cc1)[C@H](O)c1ccc(O)cc1`: the negative-log IC50 (pIC50) in assay [1] is 6.60. This compound returned a -Log EC20 in assay [2] of 6.82.

`C[C@H](NCCc1ccc(NC(C)(C)C(=O)O)cc1Cl)[C@H](O)c1ccc(O)cc1` showed a pIC50 in assay [1] of 5.85. In assay [2], the -Log EC20 was 6.59. The Selectivity in assay [8] is 46; in assay [4], 250.

For the compound `CC(C)NCC(O)c1ccc(O)c(O)c1` (configuration not stated) [ISOPROTERENOL], in the assay on Rattus norvegicus [5], the 50% effect level (ED50) was put at a dose of 0.0006 mg/kg. The compound also showed a negative logarithm of the EC50 (pEC50) in the assay filed under Rattus norvegicus [6] of 8.00.

`CC(NCCc1ccc(O)cc1)C(O)c1ccc(O)cc1` (configuration not stated) [RITODRINE] had a pIC50 in assay [1] of 7.62. For the same compound, the -Log EC20 in [2] was found to be 6.8.

These data come from ChEMBL document CHEMBL1134410, “Discovery of novel N-phenylglycine derivatives as potent and selective beta(3)-adrenoceptor agonists for the treatment of frequent urination and urinary incontinence” (J Med Chem, 2001).
